As a reminder, the IC50 is the point on the concentration scale where inhibition reaches its midpoint.

Molecules are shown by their SMILES. Where a name gives a salt, the structure may show the parent alone.

Consider 21 compounds from patent publication US12187742B2 (XRAD Therapeutics, Inc., priority 2018, dated 2025).

The target of one assay is ATM (Homo sapiens (Human), UniProt Q13315). Briefly: ATM in Cell Western Assay (pKAP1 in etoposide-treated MCF-7 cells). In kind it is cell-based. In outline:
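After paraformaldehyde fixation and Triton X-100 permeabilization, immunostained plates were read by infrared scanning (ODYSSEY CLx). Compound was given as 10 doses, 3-fold dilutions from a 1 μM final top concentration.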

Another assay has as its target DNA-PK (Homo sapiens (Human), UniProt P78527). Nature of the assay: DNA-PK Enzyme-Linked Immunosorbent Assay (phosphorylation of GST-p53 (1-101) peptide). The settings on record: ELISA. In kind it is biochemical. In outline: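 Inhibition measured by 450 nm absorbance after HRP/TMB detection of phospho-Ser15 on immobilized GST-p53 (1-101). The kinase reaction used 0.1 μg/mL DNA-PK and 20 μM ATP, 1 h at 25 °C. Ten 3-fold compound dilutions, top final concentration 100 nM.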

Where [1] appears, read: MCF-7 cells, etoposide 100 μM, 1 hr, pKAP1 readout.
The mark [2] stands for this setting: pKAP1 in etoposide-treated MCF-7 cells.

ATM, sequence (Q13315 whole entry): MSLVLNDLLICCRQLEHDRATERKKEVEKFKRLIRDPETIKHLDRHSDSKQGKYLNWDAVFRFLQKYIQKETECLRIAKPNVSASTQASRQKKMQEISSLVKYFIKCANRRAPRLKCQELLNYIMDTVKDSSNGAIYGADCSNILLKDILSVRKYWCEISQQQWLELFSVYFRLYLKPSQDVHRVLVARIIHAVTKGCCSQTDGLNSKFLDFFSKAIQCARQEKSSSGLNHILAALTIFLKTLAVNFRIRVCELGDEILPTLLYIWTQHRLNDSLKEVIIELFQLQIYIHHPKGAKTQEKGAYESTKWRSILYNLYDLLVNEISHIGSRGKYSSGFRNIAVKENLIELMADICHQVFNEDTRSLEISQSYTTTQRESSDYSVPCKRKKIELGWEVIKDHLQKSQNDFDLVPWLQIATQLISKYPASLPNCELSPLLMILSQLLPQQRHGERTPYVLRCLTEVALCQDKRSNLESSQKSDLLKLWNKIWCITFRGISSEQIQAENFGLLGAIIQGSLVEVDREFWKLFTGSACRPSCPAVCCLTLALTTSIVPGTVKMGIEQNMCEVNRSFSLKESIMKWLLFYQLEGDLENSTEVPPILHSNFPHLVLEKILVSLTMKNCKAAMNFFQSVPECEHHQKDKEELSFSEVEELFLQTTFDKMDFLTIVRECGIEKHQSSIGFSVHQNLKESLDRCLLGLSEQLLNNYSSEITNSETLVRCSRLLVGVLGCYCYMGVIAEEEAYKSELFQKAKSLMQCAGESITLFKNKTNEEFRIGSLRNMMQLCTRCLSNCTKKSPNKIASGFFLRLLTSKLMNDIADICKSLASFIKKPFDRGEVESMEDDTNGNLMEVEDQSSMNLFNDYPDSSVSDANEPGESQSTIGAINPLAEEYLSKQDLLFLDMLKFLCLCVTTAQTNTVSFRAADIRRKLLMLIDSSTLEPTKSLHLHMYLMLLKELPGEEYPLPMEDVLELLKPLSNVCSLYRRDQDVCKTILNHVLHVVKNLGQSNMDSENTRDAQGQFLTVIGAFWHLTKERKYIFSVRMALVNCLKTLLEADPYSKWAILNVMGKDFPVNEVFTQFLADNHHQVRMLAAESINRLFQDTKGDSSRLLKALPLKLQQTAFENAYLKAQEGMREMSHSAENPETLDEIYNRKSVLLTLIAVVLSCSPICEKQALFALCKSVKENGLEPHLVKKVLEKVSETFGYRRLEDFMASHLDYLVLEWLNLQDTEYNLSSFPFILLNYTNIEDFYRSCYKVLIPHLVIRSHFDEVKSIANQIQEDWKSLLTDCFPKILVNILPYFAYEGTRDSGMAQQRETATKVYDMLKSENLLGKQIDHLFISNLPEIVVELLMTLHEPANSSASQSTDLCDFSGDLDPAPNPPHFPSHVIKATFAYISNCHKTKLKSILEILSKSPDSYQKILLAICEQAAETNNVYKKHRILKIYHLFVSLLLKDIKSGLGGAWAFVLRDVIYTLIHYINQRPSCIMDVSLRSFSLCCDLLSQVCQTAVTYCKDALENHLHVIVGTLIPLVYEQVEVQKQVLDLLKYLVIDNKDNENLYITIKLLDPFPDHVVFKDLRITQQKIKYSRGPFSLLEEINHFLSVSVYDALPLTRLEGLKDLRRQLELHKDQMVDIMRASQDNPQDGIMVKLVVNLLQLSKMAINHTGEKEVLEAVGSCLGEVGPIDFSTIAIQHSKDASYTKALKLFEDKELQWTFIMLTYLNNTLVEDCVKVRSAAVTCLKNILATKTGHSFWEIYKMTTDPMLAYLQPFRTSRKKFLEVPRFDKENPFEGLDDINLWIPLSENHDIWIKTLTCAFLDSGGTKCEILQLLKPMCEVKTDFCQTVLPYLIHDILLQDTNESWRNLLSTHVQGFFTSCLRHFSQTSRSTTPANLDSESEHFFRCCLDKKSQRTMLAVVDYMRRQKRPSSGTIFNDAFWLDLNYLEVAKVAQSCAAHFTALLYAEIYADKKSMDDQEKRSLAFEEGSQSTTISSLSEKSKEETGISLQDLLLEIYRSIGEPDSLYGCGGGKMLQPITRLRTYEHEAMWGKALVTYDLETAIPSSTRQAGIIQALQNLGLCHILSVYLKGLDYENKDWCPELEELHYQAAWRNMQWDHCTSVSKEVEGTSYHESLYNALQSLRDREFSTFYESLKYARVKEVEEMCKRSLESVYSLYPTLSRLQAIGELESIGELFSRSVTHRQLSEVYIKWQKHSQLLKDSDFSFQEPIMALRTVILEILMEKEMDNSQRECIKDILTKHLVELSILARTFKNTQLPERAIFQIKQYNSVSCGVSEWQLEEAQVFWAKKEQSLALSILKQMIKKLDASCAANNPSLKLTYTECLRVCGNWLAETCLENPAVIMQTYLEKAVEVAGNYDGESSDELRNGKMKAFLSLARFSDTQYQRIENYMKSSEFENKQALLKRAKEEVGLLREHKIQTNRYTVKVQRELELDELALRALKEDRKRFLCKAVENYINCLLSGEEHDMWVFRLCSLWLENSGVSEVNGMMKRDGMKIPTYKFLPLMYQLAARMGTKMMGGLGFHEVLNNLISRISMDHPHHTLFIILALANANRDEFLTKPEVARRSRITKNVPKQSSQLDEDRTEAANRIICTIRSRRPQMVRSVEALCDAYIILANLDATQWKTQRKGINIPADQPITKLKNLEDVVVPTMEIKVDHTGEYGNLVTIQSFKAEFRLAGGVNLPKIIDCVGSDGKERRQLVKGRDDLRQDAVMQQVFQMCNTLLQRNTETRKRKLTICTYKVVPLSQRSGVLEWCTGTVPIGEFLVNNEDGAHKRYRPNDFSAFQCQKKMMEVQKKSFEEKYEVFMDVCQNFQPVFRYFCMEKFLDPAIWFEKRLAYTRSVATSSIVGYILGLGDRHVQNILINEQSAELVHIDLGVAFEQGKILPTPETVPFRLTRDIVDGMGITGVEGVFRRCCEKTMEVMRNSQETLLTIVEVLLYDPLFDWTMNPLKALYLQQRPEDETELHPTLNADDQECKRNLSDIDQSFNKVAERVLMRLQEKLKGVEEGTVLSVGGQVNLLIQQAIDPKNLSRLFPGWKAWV

In the case of `CN1C(=O)C2(CCC2)c2c1cnc1ccc(-c3cnc(OCCCN4CCCCC4)c(NS(C)(=O)=O)c3)cc21` [Example 225, N-(5-(3′-Methyl-2′-oxo-2′,3′-dihydrospiro[cyclobutane-1,1′-pyrrolo[2,3-c]quinolin]-8′-yl)-2-(3-(piperidin-1-yl)propoxy)pyridin-3-yl)methanesulfonamide], the values for the 50% inhibitory concentration (IC50) against ATM (setting [1]) and against DNA-PK (ATP 20 μM) were 1 to 100 nM and less than 0.5 nM, respectively.

As to `CNC1CN(c2ncc(-c3ccc4ncc5c(c4c3)C3(CCC3)C(=O)N5C)cc2NS(C)(=O)=O)C1` [Example 329, N-(5-(3′-Methyl-2′-oxo-2′,3′-dihydrospiro[cyclobutane-1,1′-pyrrolo[2,3-c]quinolin]-8′-yl)-2-(3-(methylamino)azetidin-1-yl)pyridin-3-yl) methanesulfonamide formate], the half-maximal inhibitory concentration (IC50) at ATM (setting [1]) is 1 to 100 nM; against DNA-PK (ATP 20 μM) it was less than 0.5 nM.

As to `CC(C)N1CC2(C1)C(=O)N(C)c1cnc3cc(F)c(-c4cnc(N5CCC(N6CCCCC6)CC5)c(NS(C)(=O)=O)c4)cc3c12` [Example 486], the IC50 against ATM (setting [2]) and at DNA-PK (20 μM ATP) was 1 to 100 nM throughout.

With `CN(C)CCCOc1ncc(-c2ccc3ncc4c(c3c2)[C@]2(C[C@@H](O)C2)C(=O)N4C)cc1NS(C)(=O)=O` [Example 383, trans-N-(2-(3-(Dimethylamino)propoxy)-5-(3-hydroxy-3′-methyl-2′-oxo-2′,3′-dihydrospiro[cyclobutane-1,1′-pyrrolo[2,3-c]quinolin]-8′-yl)pyridin-3-yl)methanesulfonamide], the IC50 on ATM (setting [2]) and against DNA-PK (20 μM ATP) was 1 to 100 nM throughout.

Take `CN(C)CCCOc1ncc(-c2ccc3ncc4c(c3c2)C2(CCC2)C(=O)N4C)cc1NS(=O)(=O)c1cscn1` [Example 160, N-(2-(3-(Dimethylamino)propoxy)-5-(3′-methyl-2′-oxo-2′,3′-dihydrospiro[cyclobutane-1,1′-pyrrolo[2,3-c]quinolin]-8′-yl)pyridin-3-yl)thiazole-4-sulfonamide hydrochloride]: the 50% inhibitory concentration (IC50) at ATM (setting [1]) is 1 to 100 nM; on DNA-PK (ATP 20 μM), less than 0.5 nM.

With `CCNCCOc1ncc(-c2ccc3ncc4c(c3c2)C2(CCC2)C(=O)N4C)cc1NS(C)(=O)=O` [Example 248, N-(2-(2-(Ethylamino)ethoxy)-5-(3′-methyl-2′-oxo-2′,3′-dihydrospiro[cyclobutane-1,1′-pyrrolo[2,3-c]quinolin]-8′-yl)pyridin-3-yl) methanesulfonamide], the half-maximal inhibitory concentration (IC50) at ATM (setting [1]) was 1 to 100 nM; against DNA-PK (ATP 20 μM) it was less than 0.5 nM.

`COC[C@H]1C[C@]2(C1)C(=O)N(C)c1cnc3cc(F)c(-c4cnc(OCCNC(C)C)c(NS(C)(=O)=O)c4)cc3c12` [Example 404, cis-N-(5-(7′-Fluoro-3-(methoxymethyl)-3′-methyl-2′-oxo-2′,3′-dihydrospiro[cyclobutane-1,1′-pyrrolo[2,3-c]quinolin]-8′-yl)-2-(2-(isopropylamino)ethoxy)pyridin-3-yl)methanesulfonamide]: the values for the IC50 at ATM (setting [2]) and against DNA-PK (20 μM ATP) were 1 to 100 nM and 0.5 to 1 nM, respectively.

As for `CC(C)NCCOc1ncc(-c2cc3c(cc2F)ncc2c3[C@]3(C[C@H](N(C)c4ccccc4)C3)C(=O)N2C)cc1NS(C)(=O)=O` [Example 463, cis-N-(5-(7′-Fluoro-3′-methyl-3-(methyl(phenyl)amino)-2′-oxo-2′,3′-dihydrospiro[cyclobutane-1,1′-pyrrolo[2,3-c]quinolin]-8′-yl)-2-(2-(isopropylamino)ethoxy)pyridin-3-yl)methanesulfonamide], the IC50 is 1 to 100 nM against ATM (setting [2]) and less than 0.5 nM on DNA-PK (20 μM ATP).

In the case of `CN1C(=O)C2(CCC2)c2c1cnc1ccc(-c3cnc(N4CC(N(C)C)C4)c(NS(=O)(=O)N(C)C)c3)cc21` [Example 288, 8′-(6-[3-(Dimethylamino)azetidin-1-yl]-5-[(dimethylsulfamoyl)amino]pyridin-3-yl}-3′-methyl-2′,3′-dihydrospiro [cyclobutane-1,1′-pyrrolo[2,3-c]quinoline]-2′-one], the IC50 against ATM (setting [1]) was 1 to 100 nM; on DNA-PK (ATP 20 μM), 0.5 to 1 nM.

For `Cc1ccc(S(=O)(=O)Nc2cc(-c3ccc4ncc5c(c4c3)C3(CCC3)C(=O)N5C)cnc2N2CCC(N(C)C)CC2)cc1` [Example 178, N-(2-(4-(Dimethylamino)piperidin-1-yl)-5-(3′-methyl-2′-oxo-2′,3′-dihydrospiro[cyclobutane-1,1′-pyrrolo[2,3-c]quinolin]-8′-yl)pyridin-3-yl)-4-methylbenzenesulfonamide 2,2,2-trifluoroacetate], the IC50 at ATM (setting [1]) was 1 to 100 nM; against DNA-PK (ATP 20 μM) it was less than 0.5 nM.

Consider `Cc1ccc(S(=O)(=O)Nc2cc(-c3ccc4ncc5c(c4c3)C3(CCC3)C(=O)N5C)cnc2N2CCC(N3CCCCC3)CC2)cc1` [Example 192, N-(2-(1,4-Bipiperidin]-1′-yl)-5-(3′-methyl-2′-oxo-2′,3′-dihydrospiro[cyclobulane-1,1′-pyrrolo[2,3-c]quinolin]-8′-yl)pyridin-3-yl)-4-methylbenzenesulfonamide hydrochloride], for which the IC50 on ATM (setting [1]) and against DNA-PK (ATP 20 μM) was 1 to 100 nM in each case.

Turning to `CC(C)NCCOc1ncc(-c2cc3c(cc2F)ncc2c3[C@]3(C[C@H](c4ccc(Cl)cc4)C3)C(=O)N2C)cc1NS(C)(=O)=O` [Example 416, cis-N-(5-(3-(4-Chlorophenyl)-7′-fluoro-3′-methyl-2′-oxo-2′,3′-dihydrospiro[cyclobutane-1,1′-pyrrolo[2,3-c]quinolin]-8′-yl)-2-(2-(isopropylamino)ethoxy)pyridin-3-yl)methanesulfonamide], the half-inhibitory concentration (IC50) at ATM (setting [2]) and against DNA-PK (20 μM ATP) was 1 to 100 nM throughout.

For the compound `CC(C)NCCOc1ncc(-c2cc3c(cc2F)ncc2c3[C@]3(C[C@H](COc4ccccc4)C3)C(=O)N2C)cc1NS(C)(=O)=O` [Example 409, cis-N-(5-(7′-Fluoro-3′-methyl-2′-oxo-3-(phenoxymethyl)-2′,3′-dihydrospiro[cyclobutane-1,1′-pyrrolo[2,3-c]quinolin]-8′-yl)-2-(2-(isopropylamino)ethoxy)pyridin-3-yl)methanesulfonamide], the IC50 was 1 to 100 nM on ATM (setting [2]) and less than 0.5 nM on DNA-PK (20 μM ATP).

Take `CN(C)CCCOc1ncc(-c2cc3c4c(cnc3cc2F)N(C)C(=O)C42CCC2)cc1NS(=O)(=O)N(C)C` [Example 290, 8′-{6-[3-(Dimethylamino)propoxy]-5-[(dimethylsulfamoyl)amino]pyridin-3-yl}-7′-fluoro-3′-methyl-2′,3′-dihydrospiro[cyclobutane-1,1′-pyrrolo[2,3-c]quinoline]-2′-one hydrochloride]: the figures for the half-maximal inhibitory concentration (IC50) against ATM (setting [1]) and against DNA-PK (ATP 20 μM) were 1 to 100 nM and 0.5 to 1 nM, respectively.

On to `CN(C)CCCOc1ncc(-c2ccc3ncc4c(c3c2)C2(CCC2)C(=O)N4C)cc1NS(=O)(=O)c1cncc(C(F)(F)F)c1` [Example 141, N-(2-(3-(Dimethylamino)propoxy)-5-(3′-methyl-2′-oxo-2′,3′-dihydrospiro[cyclobulane-1,1′-pyrrolo[2,3-c]quinolin]-8′-yl)pyridin-3-yl)-5-(trifluoromethyl)pyridine-3-sulfonamide hydrochloride], for which the values for the IC50 at ATM (setting [1]) and against DNA-PK (ATP 20 μM) were 1 to 100 nM and greater than 100 nM, respectively.

Consider `CN(C)CCCOc1ncc(-c2ccc3ncc4c(c3c2)C2(CCC2)C(=O)N4C)cc1NS(=O)(=O)c1ccccc1` [Example 5, N-(2-(3-(Dimethylamino)propoxy)-5-(3′-methyl-2′-oxo-2′,3′-dihydrospiro [cyclobutane-1,1′-pyrrolo [2,3-c]quinolin]-8′-yl)pyridin-3-yl)benzenesulfonamide], for which the IC50 on ATM (setting [1]) is 1 to 100 nM; at DNA-PK (ATP 20 μM), less than 0.5 nM.

Regarding `COc1cccc([C@H]2C[C@]3(C2)C(=O)N(C)c2cnc4cc(F)c(-c5cnc(OCCNC(C)C)c(NS(C)(=O)=O)c5)cc4c23)n1` [Example 428, cis-N-(5-(7′-Fluoro-3-(6-methoxypyridin-2-yl)-3′-methyl-2′-oxo-2′,3′-dihydrospiro[cyclobutane-1,1′-pyrrolo[2,3-c]quinolin]-8′-yl)-2-(2-(isopropylamino)ethoxy)pyridin-3-yl)methanesulfonamide], the IC50 at ATM (setting [2]) and against DNA-PK (20 μM ATP) was 1 to 100 nM throughout.

As for `CCN(C)S(=O)(=O)Nc1cc(-c2ccc3ncc4c(c3c2)C2(CC2)C(=O)N4C)cnc1N1CCC(N2CCCCC2)CC1` [Example 214], the IC50 against ATM (setting [1]) and against DNA-PK (ATP 20 μM) was 0.5 to 1 nM throughout.

In the case of `CN1C(=O)C2(CC2)c2c1cnc1ccc(-c3cnc(Cl)c(NS(=O)(=O)c4ccccc4)c3)cc21` [Example 15, N-(2-Chloro-5-(3′-methyl-2′-oxo-2′,3′-dihydrospiro[cyclopropane-1,1′-pyrrolo[2,3-c]quinolin]-8′-yl)pyridin-3-yl)benzenesulfonamide], the values for the half-inhibitory concentration (IC50) at ATM (setting [1]) and against DNA-PK (ATP 20 μM) were 1 to 100 nM and less than 0.5 nM, respectively.

As to `CN1C(=O)C2(CCC2)c2c1cnc1ccc(-c3cnc(N4CCC(N5CCCCC5)C4)c(NS(C)(=O)=O)c3)cc21` (racemic) [Example 352, (rac)-N-(5-(3′-Methyl-2′-oxo-2′,3′-dihydrospiro[cyclobulane-1,1′-pyrrolo[2,3-c]quinolin]-8′-yl)-2-(3-(piperidin-1-yl)pyrrolidin-1-yl)pyridin-3-yl)methanesulfonamide hydrochloride], the IC50 at ATM (setting [2]) and against DNA-PK (20 μM ATP) was 1 to 100 nM each time.

Regarding `CN(C)CC(O)COc1ncc(-c2ccc3ncc4c(c3c2)C2(CCC2)C(=O)N4C)cc1NS(C)(=O)=O` (stereo not drawn) [Example 295, N-(2-(3-(Dimethylamino)-2-hydroxypropoxy)-5-(3′-methyl-2′-oxo-2′,3′-dihydrospiro[cyclobutane-1,1′-pyrrolo[2,3-c]quinolin]-8′-yl)pyridin-3-yl)methanesulfonamide], the half-inhibitory concentration (IC50) against ATM (setting [1]) was in the range of 1 to 100 nM; at DNA-PK (ATP 20 μM), 0.5 to 1 nM.
